Reference: patent publication EP3153515A1, “COMPOUNDS FOR INHIBITING HEPATITIS C VIRUS, PHARMACEUTICAL COMPOSITIONS AND USES THEREOF” (priority 2014, dated 2015)
pEC50: −log10 of the molar value. Where two headings read alike, the source gives them in different places.

How the values were obtained:
[1] = system: HCV NS5A replicon GT-2a; experiment: HCV NS5A replicon anti-viral activity (EC50), GT-2a; assay type: cell-based; settings: Hepatitis C virus, genotype 1a / genotype 2a / genotype 6a; GT-2a replicon; read-out: Inhibitory activity against various HCV-NS5A subtypes(EC50, GT-1a to GT-6a) GT-2a
Description: (§1) The autonomous replication level of HCV in liver cells in vitro is very low, and the only animal that can be infected by HCV is chimpanzee, therefore there is no appropriate animal model currently available for preclinical pharmacodynamic study. Some researchers have transplanted human liver tissue infected with HCV in vitro into immune deficient mice to establish an in vivo mice model, but these mice are hard to raise and the model is unstable and short of normal immunologic reaction. Moreover, the model has significant difference with the pathogenic process of hepatitis C, therefore, it has not been used for animal model to assess the action of anti-HCV medicine yet. The progress of the development of anti-viral drugs for the treatment of HCV infection had been very slow because the pathogenic mechanism and life cycle of HCV were unclear before 1999 due to the lack of cell culture system for effective multiplication of HCV. But researchers managed to achieve a breakthrough in 1999 after numerous attempts. An effective cell culture model-replicon system in which HCV is capable of autonomous replication in transfected human hepatic carcinoma cell line Huh-7 had been established in that year on the basis of subgenomic HCV RNA built with genetic engineering.
(§2) The above-mentioned cell culture model-replicon system which has been widely accepted in the industry is used in this invention for ex vivo experiments and subsequent assessment of drugs based on the experiment results.
(§3) The therapeutic effect of the compounds of this invention on HCV infection can be preliminarily assessed through the following preclinical in vitro inhibitory action test and can be further confirmed in clinical trials. Other methods used in the invention are also quite familiar to professionals in this field with ordinary technical knowledge. Method for testing the anti-viral activity(EC50) in HCV NS5A replicon system: • The viral replication level in infected cells was determined by testing Renilla luciferase with the newly established dual-reporter gene replicon system. There was a good linear relation between the expression level of the reporter gene and the HCV RNA replication level and viral protein expression level. The anti-viral activity was determined for 3 replicates in 3 replicate cells at five(5) 1:2 diluted concentration gradients, with 1 to 2 positive controls. The EC50 of the compounds was calculated in the end.
(§4) The compounds of the invention, or their stereoisomers, tautomers, esterified or amidated prodrugs, or pharmaceutically acceptable salts and mixtures have been subjected to test to determined their therapeutic effects in the treatment of HCV infection. […] Moreover, the results of 6a-6ep(Ia), 6fa-6gq(Ib) and reference compounds Ref-1(BMS-790052), Ref-2(GS5885), Ref-3 in HCV-NS5 inhibition test reveal that the cyclopentanyl/hexamethyleneamino radical containing linear polypeptide compounds 6a-6ep, 6fa-6gq and reference compounds Ref-1, Ref-2, Ref-3 have good HCV inhibitory results. […] The replicons GT-1a, GT-lb, GT-2a, GT-3a, GT-4a, GT-5a and GT-6a used for the test are routine replicons commercially available in this field. Table 1: HCV NS5A replicon inhibitory activity test results of compounds (6a-6gq) of the invention

[2] = system: HCV NS5A replicon GT-5a; experiment: HCV NS5A replicon anti-viral activity (EC50), GT-5a; assay type: cell-based; settings: Hepatitis C virus, genotype 1a / genotype 5a / genotype 6a, read-out: Inhibitory activity against various HCV-NS5A subtypes(EC50, GT-1a to GT-6a) GT-5a
Description: as §1, §2, §3, §4

[3] = system: HCV NS5A replicon GT-6a; experiment: HCV NS5A replicon anti-viral activity (EC50), GT-6a; assay type: cell-based; settings: Hepatitis C virus, genotype 1a / genotype 6a; GT-6a replicon; read-out: Inhibitory activity against various HCV-NS5A subtypes(EC50, GT-1a to GT-6a) GT-6a
Description: as §1, §2, §3, §4

[4] = system: HCV NS5A replicon GT-lb; experiment: HCV NS5A replicon anti-viral activity (EC50), GT-1b; assay type: cell-based; settings: Hepatitis C virus, genotype 1a / genotype 6a, read-out: Inhibitory activity against various HCV-NS5A subtypes(EC50, GT-1a to GT-6a) GT-lb
Description: as §1, §2, §3, §4

[5] = system: HCV NS5A replicon GT-3a; experiment: HCV NS5A replicon anti-viral activity (EC50), GT-3a; assay type: cell-based; settings: Hepatitis C virus, genotype 1a / genotype 3a / genotype 6a, read-out: Inhibitory activity against various HCV-NS5A subtypes(EC50, GT-1a to GT-6a) GT-3a
Description: as §1, §2, §3, §4

[6] = system: HCV NS5A replicon GT-1a; experiment: HCV NS5A replicon anti-viral activity (EC50), dual-reporter Renilla luciferase, GT-1a; assay type: cell-based; settings: for pEC50: Hepatitis C virus; for inhibitory activity compared with Ref-1(BMS-790052), Ref-2(GS5885), Ref-3 and Ref-4 (in words): comparison drawn from Table 2
Description: as §1, §2, §3, §4

[7] = system: HCV NS5A replicon GT-4a; experiment: HCV NS5A replicon anti-viral activity (EC50), GT-4a; assay type: cell-based; settings: Hepatitis C virus, genotype 1a / genotype 4a / genotype 6a, read-out: Inhibitory activity against various HCV-NS5A subtypes(EC50, GT-1a to GT-6a) GT-4a
Description: as §1, §2, §3, §4

[8] = system: ICR mice; experiment: MTD screening test (acute toxicity study) in mice; assay type: in vivo; settings: high dosage
Experimental: Method: ICR mice, 10 mice/group, 5 males and 5 females. A treatment group and a control group are set up for every drugs, respectively, mice in control group were administered 0.5%CMC-Na solution, i.e. the solvent of the drugs. The mice were fasted overnight but granted free access to water before the administration. Their body weight before the administration of drugs is in the range of 18.8∼24.1 g. The mice were administered the drugs by peroral lavage at the dosage of 40 mL/kg. The mice were closely observed 3 hours after the administration and twice a day afterwards for 7 days, one in the morning and one in the afternoon. At the end of the observation period, 2 mice (1 male and 1 female) were randomly selected from each treatment group and subjected to histopathological examination of part of their tissues and organs.
Two third of the novel heterocyclic compounds that have good HCV inhibiting activity (EC50: <0.05nM) after administration of the drugs by lavage at the dosage of 2000mg/kg yield a survival rate of 100%. […] Two third of the novel compounds that show high HCV inhibiting activity have very low overall toxicity (survive rate of mice after administration: 100%). It is believed that these compounds are generally nontoxic.

[9] = GT1A, GT-1a replicon, read-out: NS5A Inhibitory Activity (EC50 of GT-1a subtype inhibition)
[10] = genotype 1a / genotype 6a, read-out: Inhibitory activity against various HCV-NS5A subtypes(EC50, GT-1a to GT-6a) GT-1a

Row | Structure (SMILES) | pEC50 [1] | pEC50 [2] | pEC50 [3] | pEC50 [4] | pEC50 [5] | pEC50 [6, 9] | pEC50 [6, 10] | inhibitory activity compared with Ref-1(BMS-790052), Ref-2(GS5885), Ref-3 and Ref-4 (in words) [6] | pEC50 [7] | toxicity (in words) [8]
1 | COC(=O)N[C@H](C(=O)N1CCC[C@H]1c1ncc(-c2ccc(-c3cc4sc(-c5cnc([C@@H]6C=CCN6C(=O)[C@H](NC(=O)OC)c6ccccc6)[nH]5)cc4s3)cc2)[nH]1)C(C)C [6fg] | 11.10 | 10.54 | 10.64 | 10.89 | 10.62 | 9.00 to 12.00 | 11.05 | significantly superior | 10.92 | 
2 | COC(=O)N[C@H](C(=O)N1CC=C[C@H]1c1ncc(-c2ccc(-c3ccc(-c4c[nH]c([C@@H]5CCCN5C(=O)[C@@H](NC(=O)OC)C(C)C)n4)cc3)cc2)[nH]1)C(C)C [6ba] | 10.80 | 10.64 | 9.66 | 10.92 | 9.76 | 9.00 to 12.00 | 10.41 |  | 11.00 | 
3 | COC(=O)N[C@@H](C(=O)N1CC=C[C@H]1c1ncc(-c2ccc(-c3csc4c(-c5c[nH]c([C@@H]6CCCN6C(=O)[C@H](NC(=O)OC)c6ccccc6)n5)csc34)cc2)[nH]1)c1ccccc1 [6fm] |  |  |  |  |  | 9.00 to 12.00 |  |  |  | low toxicity at high dosage
4 | COC(=O)N[C@H](C(=O)N1CCC[C@H]1c1nc(-c2ccc(-c3ccc(-c4cnc([C@@H]5CCCN5C(=O)[C@@H](NC(=O)OC)C(C)C)[nH]4)cc3)cc2)c[nH]1)C(C)C [Ref-1, BMS-790052, reference compound] | 10.54 | 10.44 | 9.93 | 10.68 | 9.66 | 9.00 to 12.00 | 10.28 |  | 10.96 | 
5 | COC(=O)N[C@H](C(=O)N1CCC[C@H]1c1nc(-c2ccc(-c3ccc(-c4cnc([C@@H]5C=CCN5C(=O)[C@H](NC(=O)OC)c5ccccc5)[nH]4)cc3)cc2)c[nH]1)C(C)C [6dy] | 11.22 | 10.64 | 10.62 | 10.85 | 10.82 | 9.00 to 12.00 | 10.96 | significantly superior | 11.10 | low toxicity at high dosage
6 | COC(=O)NC(C(=O)N1CCC[C@H]1c1ncc(-c2cc3sc(-c4ccc(-c5cnc([C@@H]6CN(C(=O)N7Cc8cc9c(cc8C7)OCO9)CN6C(=O)[C@@H](NC(=O)OC)C(C)C)[nH]5)cc4)cc3s2)[nH]1)c1ccccc1 (some centres unmarked) [6bw] |  |  |  |  |  | 9.00 to 12.00 |  |  |  | 
7 | COC(=O)N[C@H](C(=O)N1CC=C[C@H]1c1ncc(-c2ccc(-c3ccc(-c4cnc([C@@H]5CN(C(=O)OC(C)(C)C)CN5C(=O)[C@@H](NC(=O)OC)C(C)C)[nH]4)cc3)cc2)[nH]1)C(C)C [6cw] |  |  |  |  |  | 9.00 to 12.00 |  |  |  | 
8 | COC(=O)N[C@H](C(=O)N1CC=C[C@H]1c1ncc(-c2cccc3c(-c4ccc(-c5cnc([C@@H]6CCCN6C(=O)[C@@H](NC(=O)OC)C(C)C)[nH]5)cc4)cccc23)[nH]1)C(C)C [6eg] |  |  |  |  |  | 9.00 to 12.00 |  |  |  | 
9 | COC(=O)N[C@H](C(=O)N1CC=C[C@H]1c1nc2ccc(-c3csc4c(-c5ccc(-c6cnc([C@@H]7CCCN7C(=O)[C@H](NC(=O)OC)c7ccccc7)[nH]6)cc5)csc34)cc2[nH]1)C(C)C [6fy] |  |  |  |  |  | 9.00 to 12.00 |  |  |  | 
10 | COC(=O)N[C@H](C(=O)N1CCC[C@H]1c1nc(-c2ccc(-c3ccc(-c4cnc([C@@H]5C[C@@H](OC(=O)N6Cc7ccc8c(c7C6)OCO8)CN5C(=O)[C@@H](NC(=O)OC)C(C)C)[nH]4)cc3)cc2)c[nH]1)C(C)C [6a] |  |  |  |  |  | 9.00 to 12.00 |  |  |  | 
11 | COC(=O)N[C@H](C(=O)N1CC=C[C@H]1c1nc2ccc(-c3ccc(-c4ccc5nc([C@@H]6CCCN6C(=O)[C@@H](NC(=O)OC)C(C)C)[nH]c5c4)c4c3CC3(CCCCC3)C4)cc2[nH]1)C(C)C [6en] |  |  |  |  |  | 7.30 to 9.00 |  |  |  | 
12 | CC(C)[C@H](NC(=O)N(C)C)C(=O)N1CC=C[C@H]1c1ncc(-c2ccc(-c3ccc(-c4cnc([C@@H]5CCCN5C(=O)[C@@H](NC(=O)N(C)C)C(C)C)[nH]4)cc3)cc2)[nH]1 [6cg] |  |  |  |  |  | 9.00 to 12.00 |  |  |  | 
13 | COC(=O)N[C@H](C(=O)N1CC=C[C@H]1c1ncc(-c2ccc(-c3cc4sc(-c5cnc([C@@H]6CCCN6C(=O)[C@H](NC(=O)OC)c6ccccc6)[nH]5)cc4s3)cc2)[nH]1)C(C)C [6fd] | 11.15 | 10.89 | 10.26 | 11.30 | 10.59 | 9.00 to 12.00 | 10.70 |  | 11.30 | 
14 | COC(=O)N[C@H](C(=O)N1CN(C(=O)N2Cc3ccc4c(c3C2)OCO4)C[C@H]1c1ncc(-c2ccc(-c3cccc4c(-c5cnc([C@@H]6CCCN6C(=O)[C@@H](NC(=O)OC)C(C)C)[nH]5)cccc34)cc2)[nH]1)C(C)C [6ee] |  |  |  |  |  | 9.00 to 12.00 |  |  |  | 
